# Laboratory results published in patent US8551984B2, “Aminopyrimidines as SYK inhibitors” (Merck Sharp & Dohme Corp., priority 2009, dated 2013).
# Target: recombinant human SYK (GST-hSYK fusion protein) (Homo sapiens, UniProt P43405)
# Test: biochemical
# Settings: rhSYK Activity, Table 54D
# Excerpt: Homogeneous Time-Resolved Fluorescence (HTRF) Assay for the Recombinant Human SYK Enzyme:
row,SMILES,IC50
1,COC(=O)C1(C(=O)N2CCCC(O)(c3ncc(-c4cc(C)cc(Nc5nccc(C(F)(F)F)n5)c4)s3)CC2)CC1 (stereo not shown) [Example 54D-95],< 100 nM
2,Cc1cc(Nc2nccc(C(F)(F)F)n2)cc(-c2cnc(C3(O)CCCN(C(=O)CC4CCOCC4)CC3)s2)c1 (stereo not shown) [Example 54D-96],< 100 nM
3,Cc1cc(Nc2nccc(C(F)(F)F)n2)cc(-c2cnc(C3(O)CCCN(C(=O)C(O)C(F)(F)F)CC3)s2)c1 (stereo not shown) [Example 54D-97],< 100 nM
4,Cc1cc(Nc2nccc(C(F)(F)F)n2)cc(-c2cnc(C3(O)CCCN(C(=O)c4cc(O)ccc4F)CC3)s2)c1 (stereo not shown) [Example 54D-104],< 100 nM
5,Cc1cc(Nc2nccc(C(F)(F)F)n2)cc(-c2cnc(C3(O)CCCN(C(=O)c4ccnc(Cl)n4)CC3)s2)c1 (stereo not shown) [Example 54D-105],< 100 nM
6,Cc1cc(Nc2nccc(C(F)(F)F)n2)cc(-c2cnc(C3(O)CCCN(S(N)(=O)=O)CC3)s2)c1 (stereo not shown) [Example 54D-115],< 100 nM
7,Cc1cc(Nc2nccc(C(F)(F)F)n2)cc(-c2cnc(C3(O)CCCN(C(=O)CO)CC3)s2)c1 (stereo not shown) [Example 54D-121],< 100 nM

# Results, then the molecule that gave them:
row,IC50,SMILES
1,< 100 nM,Cc1cc(Nc2nccc(C(F)(F)F)n2)cc(-c2cnc(C3(O)CCCN(C(=O)Cc4n[nH]c(=O)[nH]4)CC3)s2)c1 (stereo not shown) [Example 54D-93]
2,< 100 nM,Cc1cc(Nc2nccc(C(F)(F)F)n2)cc(-c2cnc(C3(O)CCCN(C(=O)CCC(=O)N(C)C)CC3)s2)c1 (stereo not shown) [Example 54D-98]
3,< 100 nM,C#Cc1ccc(C(=O)N2CCCC(O)(c3ncc(-c4cc(C)cc(Nc5nccc(C(F)(F)F)n5)c4)s3)CC2)cc1 (stereo not shown) [Example 54D-99]
4,< 100 nM,CCC(CO)(CO)C(=O)N1CCCC(O)(c2ncc(-c3cc(C)cc(Nc4nccc(C(F)(F)F)n4)c3)s2)CC1 (stereo not shown) [Example 54D-102]
5,< 100 nM,CC(=O)Oc1ccc(C(=O)N2CCCC(O)(c3ncc(-c4cc(C)cc(Nc5nccc(C(F)(F)F)n5)c4)s3)CC2)cc1 (stereo not shown) [Example 54D-106]
6,< 100 nM,COC(=O)C1CCC(C(=O)N2CCCC(O)(c3ncc(-c4cc(C)cc(Nc5nccc(C(F)(F)F)n5)c4)s3)CC2)CC1 (stereo not shown) [Example 54D-111]
7,< 100 nM,COC(=O)C(O)(CC(=O)N1CCCC(O)(c2ncc(-c3cc(C)cc(Nc4nccc(C(F)(F)F)n4)c3)s2)CC1)C(F)(F)F (stereo not shown) [Example 54D-112]
8,< 100 nM,Cc1cc(Nc2nccc(C(F)(F)F)n2)cc(-c2cnc(C3(O)CCCN(S(=O)(=O)NC(=O)OC(C)(C)C)CC3)s2)c1 (stereo not shown) [Example 54D-114]
9,< 100 nM,Cc1cc(Nc2nccc(C(F)(F)F)n2)cc(-c2cnc(C3(O)CCCN(S(=O)(=O)O)CC3)s2)c1 (stereo not shown) [Example 54D-118]

# Same assay, conditions: rhSYK Activity, Table 54E
row,SMILES,IC50
1,Cc1cc(Nc2nccc(C(F)(F)F)n2)cc(-c2cnc([C@]3(O)CC[C@@H](NC(=O)[C@@H](C)O)CC3)s2)c1 [Example 54E-1],< 100 nM
2,Cc1cc(Nc2nccc(C(F)(F)F)n2)cc(-c2cnc(C3(O)CCC(NC(=O)CC(N)=O)CC3)s2)c1 (stereo not shown) [Example 54E-3],< 100 nM
3,Cc1cc(Nc2nccc(C(F)(F)F)n2)cc(-c2cnc([C@]3(O)CC[C@@H](NC(=O)c4ncc[nH]4)CC3)s2)c1 [Example 54E-4],< 100 nM
4,Cc1cc(Nc2nccc(C(F)(F)F)n2)cc(-c2cnc([C@]3(O)CC[C@@H](NC(=O)c4c[nH]cn4)CC3)s2)c1 [Example 54E-5],< 100 nM
5,Cc1cc(Nc2nccc(C(F)(F)F)n2)cc(-c2cnc(C3(O)CCC(NC(=O)CCC(N)=O)CC3)s2)c1 (stereo not shown) [Example 54E-8],< 100 nM
6,Cc1cc(Nc2nccc(C(F)(F)F)n2)cc(-c2cnc([C@]3(O)CC[C@@H](NC(=O)c4ccccc4)CC3)s2)c1 [Example 54E-9],< 100 nM
7,Cc1cc(Nc2nccc(C(F)(F)F)n2)cc(-c2cnc([C@]3(O)CC[C@@H](NC(=O)Cc4c[nH]cn4)CC3)s2)c1 [Example 54E-10],< 100 nM
8,Cc1cc(Nc2nccc(C(F)(F)F)n2)cc(-c2cnc([C@]3(O)CC[C@@H](NC(=O)Cn4ccnn4)CC3)s2)c1 [Example 54E-12],< 100 nM
9,Cc1cc(Nc2nccc(C(F)(F)F)n2)cc(-c2cnc([C@]3(O)CC[C@@H](NC(=O)C4CCCCC4)CC3)s2)c1 [Example 54E-14],< 100 nM
10,Cc1cc(Nc2nccc(C(F)(F)F)n2)cc(-c2cnc(C3(O)CCC(NC(=O)C4CNC(=O)N4)CC3)s2)c1 (stereo not shown) [Example 54E-15],< 100 nM
11,Cc1cc(Nc2nccc(C(F)(F)F)n2)cc(-c2cnc(C3(O)CCC(NC(=O)CC4CCCO4)CC3)s2)c1 (stereo not shown) [Example 54E-17],< 100 nM
12,Cc1cc(Nc2nccc(C(F)(F)F)n2)cc(-c2cnc([C@]3(O)CC[C@@H](NC(=O)CCc4cn[nH]c4)CC3)s2)c1 [Example 54E-26],< 100 nM
13,C#Cc1ccc(C(=O)NC2CCC(O)(c3ncc(-c4cc(C)cc(Nc5nccc(C(F)(F)F)n5)c4)s3)CC2)cc1 (stereo not shown) [Example 54E-32],< 100 nM
14,Cc1cc(Nc2nccc(C(F)(F)F)n2)cc(-c2cnc([C@]3(O)CC[C@@H](NC(=O)c4ccc(C#N)cc4)CC3)s2)c1 [Example 54E-33],< 100 nM
15,Cc1cc(Nc2nccc(C(F)(F)F)n2)cc(-c2cnc(C3(O)CCC(NC(=O)CC(N)C(F)(F)F)CC3)s2)c1 (stereo not shown) [Example 54E-37],< 100 nM

# Other lines, results leading:
row,IC50,SMILES
1,< 100 nM,Cc1cc(Nc2nccc(C(F)(F)F)n2)cc(-c2cnc([C@]3(O)CC[C@@H](NC(=O)c4c[nH]nn4)CC3)s2)c1 [Example 54E-6]
2,< 100 nM,Cc1cc(Nc2nccc(C(F)(F)F)n2)cc(-c2cnc(C3(O)CCC(NC(=O)C4CC(O)C4)CC3)s2)c1 (stereo not shown) [Example 54E-7]
3,< 100 nM,Cc1cc(Nc2nccc(C(F)(F)F)n2)cc(-c2cnc(C3(O)CCC(NC(=O)Cn4cncn4)CC3)s2)c1 (stereo not shown) [Example 54E-11]
4,< 100 nM,Cc1cc(Nc2nccc(C(F)(F)F)n2)cc(-c2cnc(C3(O)CCC(NC(=O)Cn4cnnn4)CC3)s2)c1 (stereo not shown) [Example 54E-13]
5,< 100 nM,Cc1cc(Nc2nccc(C(F)(F)F)n2)cc(-c2cnc(C3(O)CCC(NC(=O)C4CCCCO4)CC3)s2)c1 (stereo not shown) [Example 54E-16]
6,< 100 nM,Cc1cc(Nc2nccc(C(F)(F)F)n2)cc(-c2cnc(C3(O)CCC(NC(=O)C(C)(CO)CO)CC3)s2)c1 (stereo not shown) [Example 54E-20]
7,< 100 nM,Cc1cc(Nc2nccc(C(F)(F)F)n2)cc(-c2cnc([C@]3(O)CC[C@@H](NC(=O)Cc4ccccn4)CC3)s2)c1 [Example 54E-21]
8,< 100 nM,Cc1cc(Nc2nccc(C(F)(F)F)n2)cc(-c2cnc([C@]3(O)CC[C@@H](NC(=O)CS(C)(=O)=O)CC3)s2)c1 [Example 54E-22]
9,< 100 nM,Cc1cc(Nc2nccc(C(F)(F)F)n2)cc(-c2cnc([C@]3(O)CC[C@@H](NC(=O)Cc4ncccn4)CC3)s2)c1 [Example 54E-23]
10,< 100 nM,Cc1cc(Nc2nccc(C(F)(F)F)n2)cc(-c2cnc([C@]3(O)CC[C@@H](NC(=O)c4ccc(O)cn4)CC3)s2)c1 [Example 54E-24]
11,< 100 nM,Cc1cc(Nc2nccc(C(F)(F)F)n2)cc(-c2cnc(C3(O)CCC(NC(=O)c4cccc(O)n4)CC3)s2)c1 (stereo not shown) [Example 54E-25]
12,< 100 nM,Cc1cc(Nc2nccc(C(F)(F)F)n2)cc(-c2cnc(C3(O)CCC(NC(=O)CCn4cncn4)CC3)s2)c1 (stereo not shown) [Example 54E-27]
13,< 100 nM,Cc1cc(Nc2nccc(C(F)(F)F)n2)cc(-c2cnc(C3(O)CCC(NC(=O)C4CCCC(=O)N4)CC3)s2)c1 (stereo not shown) [Example 54E-28]
14,< 100 nM,Cc1cc(Nc2nccc(C(F)(F)F)n2)cc(-c2cnc(C3(O)CCC(NC(=O)CC4CCOCC4)CC3)s2)c1 (stereo not shown) [Example 54E-29]
15,< 100 nM,Cc1cc(Nc2nccc(C(F)(F)F)n2)cc(-c2cnc(C3(O)CCC(NC(=O)C(O)C(F)(F)F)CC3)s2)c1 (stereo not shown) [Example 54E-30]
16,< 100 nM,Cc1cc(Nc2nccc(C(F)(F)F)n2)cc(-c2cnc(C3(O)CCC(NC(=O)CCC(=O)N(C)C)CC3)s2)c1 (stereo not shown) [Example 54E-31]
17,< 100 nM,Cc1cc(Nc2nccc(C(F)(F)F)n2)cc(-c2cnc(C3(O)CCC(NC(=O)c4cc(O)ccc4F)CC3)s2)c1 (stereo not shown) [Example 54E-35]
18,< 100 nM,Cc1cc(Nc2nccc(C(F)(F)F)n2)cc(-c2cnc([C@]3(O)CC[C@@H](NC(=O)c4ccc(O)c(F)c4)CC3)s2)c1 [Example 54E-36]
19,< 100 nM,COC(=O)C1CCC(C(=O)NC2CCC(O)(c3ncc(-c4cc(C)cc(Nc5nccc(C(F)(F)F)n5)c4)s3)CC2)CC1 (stereo not shown) [Example 54E-38]

# Same assay, conditions: rhSYK Activity, Table 56
row,IC50,SMILES
1,< 100 nM,Cc1cc(Nc2nccc(C)n2)cc(-c2cnc(C3(O)CCC3)s2)c1 [Example 56-1]
2,< 100 nM,CCc1ccnc(Nc2cc(C)cc(-c3cnc(C4(O)CCC4)s3)c2)n1 [Example 56-2]
3,< 100 nM,Cc1cc(Nc2nccc(C3CC3)n2)cc(-c2cnc(C3(O)CCC3)s2)c1 [Example 56-3]

# Same assay, conditions: rhSYK Activity, Table 61B
row,SMILES,IC50
1,Cc1cc(Nc2nccc(C(F)(F)F)n2)cc(-c2cnc(C3(NS(=O)(=O)CC(F)(F)F)CCC3)s2)c1 [Example 61B-2],< 100 nM
2,Cc1cc(Nc2nccc(C(F)(F)F)n2)cc(-c2cnc(C3(NS(=O)(=O)CF)CCC3)s2)c1 [Example 61B-3],< 100 nM
3,Cc1cc(Nc2nccc(C(F)(F)F)n2)cc(-c2cnc(C3(NS(C)(=O)=O)CCC3)s2)c1 [Example 61B-4],< 100 nM
4,Cc1cc(Nc2nccc(C(F)(F)F)n2)cc(-c2cnc(C3(NS(=O)(=O)C(F)(F)F)CCC3)s2)c1 [Example 61B-5],< 100 nM
5,Cc1cc(Nc2nccc(C(F)(F)F)n2)cc(-c2cnc(C3(N[S+]([O-])C(F)F)COC3)s2)c1 (stereo not shown) [Example 61B-8],< 100 nM
6,CS(=O)(=O)NC1(c2ncc(-c3cccc(Nc4nccc(C(F)(F)F)n4)c3)s2)COC1 [Example 61B-9],< 100 nM
7,COc1nc(Nc2cc(C)cc(-c3cnc(C4(N)COC4)s3)c2)ncc1Cl [Example 61B-10],< 100 nM

# Second part, the molecule after the results:
row,IC50,SMILES
1,< 100 nM,"Cc1cc(Nc2nccc(C(F)(F)F)n2)cc(-c2cnc(C3(N)CCC3)s2)c1 [Example 61B-1, N-{3-[2-(1-aminocyclobutyl)-1,3-thiazol-5-yl]-5-methylphenyl}-4-(trifluoromethyl)pyrimidin-2-amine]"
2,< 100 nM,Cc1cc(Nc2nccc(C(F)(F)F)n2)cc(-c2cnc(C3(NS(=O)(=O)CC(F)(F)F)COC3)s2)c1 [Example 61B-7]

# Same assay, conditions: rhSYK Activity, Table 62
row,IC50,SMILES
1,< 100 nM,Cc1cc(Nc2ncccn2)cc(-c2cnc(C3(N)CCC3)s2)c1 [Example 62-1]
2,< 100 nM,COc1ccnc(Nc2cc(C)cc(-c3cnc(C4(N)CCC4)s3)c2)n1 [Example 62-2]
